Columns and labels:
[1] = tested on: Rattus norvegicus
[2] = tested on: Canidae; conditions: Dog Other; for NOAEL: body weight
[3] = subchronic, duration: 90 days, oral, diet, M/F, Sprague-Dawley, no effects
[4] = subchronic, duration: 42 days, oral, gavage, M/F, body weight

Work on `CC(=O)NCCS(=O)(=O)O.CC(=O)NCCS(=O)(=O)O.[Mg]` yielded an NOAEL ([1]; subchronic, duration: 13 weeks, oral, gavage, M/F, Crj:CD, no effects) of 1000 mg/kg-day.

`Cc1nc2cccc(OCC(C)(C)C(=O)NC(C)C)c2c(N)c1C(=O)O` gave an NOAEL ([1]; reproduction developmental, oral, gavage, F, Crj:CD, no effects) of 1000 mg/kg-day and an NOAEL ([1]; subchronic, duration: 13 weeks, oral, diet, M/F, Crj:CD, no effects) of 100 mg/kg-day.

For `Cc1sc2nc(=O)[nH]c(N)c2c1C.Cl`, the NOAEL ([1]; subchronic, duration: 13 weeks, oral, diet, M/F, Sprague-Dawley, no effects) was 60 mg/kg-day.

`Cc1cc(OC2OC(CO)C(O)C(O)C2O)ccc1C(=O)C(C)(C)NC(=O)c1sccc1C` (stereo not given) showed an NOAEL ([2]; chronic, duration: 1 years) of 1.57 mg/kg-day and an NOAEL ([2]; subchronic, duration: 90 days, oral) of 5.34 mg/kg-day.

Work on `COc1cc(S(=O)(=O)[O-])c(C)cc1N=Nc1c(O)ccc2cc(S(=O)(=O)[O-])ccc12.[Na+].[Na+]` yielded an NOAEL ([1]; chronic, oral, M/F, body weight) of 701 mg/kg-day, an NOAEL ([1]; developmental, M, development) of 701 mg/kg-day and an NOAEL ([1]; reproduction developmental, growth) of 695 mg/kg-day. It also gave an NOAEL ([1]; reproduction developmental, oral, M/F, growth) of 695 mg/kg-day.

Compound `CC1OCCC12SC1CCOC1(C)S2` (stereo not given) has an NOAEL ([1]; subchronic, duration: 90 days, oral, diet, M, hematological) of 25 mg/kg-day.

Compound `C[n+]1cccc(C(=N)[O-])c1.Cl` has an NOAEL ([1]; chronic, duration: 91 days, oral, gavage, M/F, clinical chemistry) of 250 mg/kg-day.

Work on `NC(=O)Cc1cccc2ccccc12` [1-Naphthaleneacetamide] yielded an NOAEL ([1]; developmental, development) of 15 mg/kg-day and an NOAEL ([1]; subchronic, duration: 90 days, oral, hematological) of 10 mg/kg-day.

In the case of `C=CCSCC=C` [1-Propene, 3,3'-thiobis-], the NOAEL ([1]; chronic, duration: 14 weeks, oral, gavage, M/F, Wistar, no effects) was 250 mg/kg-day.

`CSCSCSC` [2,4,6-Trithiaheptane] gave an NOAEL [1, 3] of 0.2 mg/kg-day.

`CC1(O)CSC(C)(O)CS1` (stereo not given) [2,5-Dimethyl-1,4-dithiane-2,5-diol] showed an NOAEL [1, 3] of 3.14 mg/kg-day.

Work on `CC(=O)C1=NCCS1` [2-Acetyl-2-thiazoline] yielded an NOAEL ([1]; subchronic, duration: 90 days) of 1.8 mg/kg-day and an NOAEL ([1]; subchronic, duration: 90 days, oral, diet, M/F, no effects) of 1.8 mg/kg-day.

For `CCC(CC)C(=O)O` [2-Ethylbutyric acid], the NOAEL ([1]; reproduction developmental, duration: 10 days, oral, gavage, F, Sprague-Dawley, no effects) was 200 mg/kg-day and the NOAEL ([1]; reproduction developmental, duration: 10 days, oral, gavage, F, no effects) was 200 mg/kg-day.

`CC(O)C(=O)NCCc1ccc(O)cc1` (stereo not given) [2-Hydroxy-N-[2-(4-hydroxyphenyl)ethyl]propanimidic acid] was tested, and the NOAEL ([1]; subchronic, duration: 90 days, oral, M/F) was 8.4 mg/kg-day.

`COc1ccccc1C=O` [2-Methoxybenzaldehyde] gave an NOAEL ([1]; subchronic, duration: 49 days, oral, gavage, histopathology: nonneoplastic) of 10 mg/kg-day.

`O=C1OC(=O)C2C3C=CC(C3)C12` (stereo not given) [2-Norbornene-5,6-dicarboxylic anhydride] was tested, and the NOAEL ([1]; subchronic, duration: 90 days, oral, gavage, M/F, body weight) was 250 mg/kg-day.

With `C=CCCN=C=S` [3-Butenyl isothiocyanate] the NOAEL ([1]; chronic, duration: 721 days, oral, gavage, M/F, histopathology: neoplastic) was 12 mg/kg-day.

`CCOc1cc(C=O)ccc1O` [3-Ethoxy-4-hydroxybenzaldehyde] gave an NOAEL ([1]; chronic, duration: 14 weeks) of 500 mg/kg-day.

Compound `C=CCc1cc(OC)c(O)c(OC)c1` [4-Allyl-2,6-dimethoxyphenol] has an NOAEL ([1]; subchronic, duration: 90 days, clinical chemistry) of 300 mg/kg-day.

With `C=C(C)C1CC=C(CO)CC1` (stereo not given) [4-Isopropenylcyclohex-1-en-1-ylmethanol] the LEL ([2]; subchronic, duration: 90 days, no effects) was 120 mg/kg-day and the LEL ([1]; subchronic, duration: 90 days, oral, gavage, F, no effects) was 120 mg/kg-day.

Work on `COc1ccc(C=O)cc1` [4-Methoxybenzaldehyde] yielded an NOAEL [1, 4] of 20 mg/kg-day.

For `COc1ccc(COC(C)=O)cc1` [4-Methoxybenzyl acetate], the NOAEL [1, 4] was 20 mg/kg-day.

`CCC(=O)CC(C)CC` (stereo not given) [5-Methyl-3-heptanone] showed an NOAEL ([1]; subchronic, duration: 13 weeks, oral, gavage, M, Sprague-Dawley, behavior) of 82 mg/kg-day, an NOAEL ([1]; subchronic, duration: 13 weeks, oral, gavage, M, Sprague-Dawley, clinical signs) of 82 mg/kg-day and an NOAEL ([1]; subchronic, duration: 13 weeks, oral, gavage, M, behavior) of 82 mg/kg-day. For the same compound, the NOAEL ([1]; subchronic, duration: 13 weeks, oral, gavage, M, neurology) was 82 mg/kg-day.

With `CC(=O)OC1(C)CCCC(C)(C)C12CCC(C)O2` (stereo not given) [6-Acetoxydihydrotheaspirane] the NOAEL ([1]; subchronic, duration: 90 days, oral, diet, M/F, Crj:CD, food efficiency) was 52 mg/kg-day.

In the case of `CCCCCC1CC=CC(=O)O1` (stereo not given) [6-Pentyl-5,6-dihydro-2H-pyran-2-one], the NOAEL ([1]; subchronic, duration: 90 days) was 12.1 mg/kg-day.

`CCC/C=C/C=O` [(2E)-2-Hexenal] showed an NOAEL ([1]; subchronic, duration: 13 weeks, oral, diet, M/F, no effects) of 257 mg/kg-day.

With `C/C=C/C=C/C=O` [(2E,4E)-2,4-Hexadienal] the NOAEL ([1]; chronic, duration: 14 weeks, oral, gavage, M/F, body weight) was 15 mg/kg-day.

In the case of `CC(C)(C)c1ccc(CC#N)cc1` [(4-tert-Butylphenyl)acetonitrile], the NOAEL ([1]; short-term, duration: 28 days) was 6.5 mg/kg-day.

— EPA's ToxValDB 9.5
